{
  "source": "patent US20240197715A1",
  "about": "“PHARMACEUTICAL COMBINATIONS AND USES THEREOF” (NOVARTIS AG, priority 2022, published 2024)",
  "key": {"[1]": {"tested_on": "SW620 (CCL-227, ATCC) MSS colorectal carcinoma xenografts", "test": "SW620 MSS CRC xenograft efficacy in nude mice", "type": "in vivo", "conditions": "for effect on tumor growth of parental SW620 tumors: irinotecan 15 mg/kg i.v. once weekly, Compound A 120 mg/kg p.o. daily", "description": "(§1) SW620 (CCL-227, ATCC) [MSS colorectal carcinoma (CRC)] was cultured in DMEM (#1-26F01-I, AMIMED) supplemented with 10% FCS (#2-0-1F30-I, BioConcept), 4 mM L-glutamine (#5-10K50-H, BioConcept) and 1 mM Sodium pyruvate (#5-60F00-H, BioConcept). Cells were passaged by washing first with Dulbecco's PBS without Ca^2+/Mg^2+ (#3-05F29-1, AMIMED), trypsinising cells with Trypsin 0.05% in PBS with EDTA (#5-51F00-H, AMIMED), centrifuging in the respective culture media, and splitting cells into fresh media at a ratio of 1:8, 2 times per week.\nAthymic nude mice (Charles River, Germany) were allowed to adapt for 7 days upon arrival at the animal facility and housed in a pathogen-controlled environment (5 mice/Type III cage) with access to food and water ad libitum. Animals were identified with transponders. Studies described in this report were performed according to procedures covered by a permit number issued by the Kantonales Veterinäramt Basel-Stadt.\nSubcutaneous tumors were initiated by injecting 5.0×10^6 SW620 tumor cells in 50% Matrigel (#354234, Corning) in HBSS (#H6648, SIGMA) in the right flank of nude mice. The efficacy experiment (n=6), started 11 days post-cell injection.\nCompound A and Temozolomide were made-up fresh on a weekly basis and kept at 4° C. and protected from light. Compound A was dissolved in 20% Hydroxypropyl-ß-Cyclodextrine (HP-ß-CD, #H107-100G, SIGMA) in UltraPure™ Water (#10977-035, Invitrogen) and administered p.o. at 10 ml/kg. Temozolomide was dissolved in 30% PEG-400 (#202398-500G, SIGMA) and 70% Dulbecco's PBS without Ca^2+/Mg^2+ (#3-05F29-1, AMIMED) and administered p.o. at 10 mL/kg on 5 consecutive days within a 21 days cycle. Irinotecan was made-up fresh for each treatment once a week by diluting with NaCl 0.9% (#3-06S00-I, BioConcept). The solution was administered i.v. at 5 mL/kg.\n(§2) Tumor volumes (TVol), determined from caliper measurements (using the formula I*w2*π/6) were measured two times per week. Tumor response was quantified by the change in tumor volume (endpoint minus starting value in mm^3) as the T/C (the ratio between the tumor volume in the treated group and in the untreated control group). In the case of a tumor regression or to assess the percentage of change in TVol, the tumor response was quantified by the percentage of regression of the starting TVol. The body-weight (BW) of the animal was measured three times per week allowing calculation at any particular time-point relative to the day of initiation of treatment (day 0) of the percentage change in BW (4% BW).\nAt day 43 post-cell injection, irinotecan was administered intravenously at 15 mg/kg once weekly for 7 weeks in combination with Compound A, also administered from day 43, orally at 120 mg/kg daily for 52 days.\nStarting 11 days post-cell injection, temozolomide was administered orally on a 21 day cycle of 5 consecutive days at 100 mg/kg on 5 consecutive days (day 11 to day 15 and day 32 to day 36). At day 43 post-cell injection, to the first group irinotecan was administered intravenously at 15 mg/kg once weekly for 6 weeks, and to the second group irinotecan was administered intravenously at 15 mg/kg once weekly for 6 weeks in combination with Compound A, also administered from day 43, orally at 120 mg/kg daily for 46 days."}, "[2]": {"tested_on": "T84 (CCL-248, ATCC) MSS colorectal carcinoma xenografts", "test": "T84 MSS CRC xenograft efficacy in nude mice", "type": "in vivo", "conditions": "Compound A 120 mg/kg p.o.; irinotecan 5 mg/kg i.v. once a week", "description": "as §1, with “T84 (CCL-248,” for “SW620 (CCL-227,”, “is MSS” for “[MSS”, “(CRC). It” for “(CRC)]”\nAthymic nude mice (Charles River, Germany) were allowed to adapt for 7 days upon arrival at the animal facility and housed in a pathogen-controlled environment (5 mice/Type III cage) with access to food and water ad libitum. […]\nas §2, with “I*w2*TT/6)” for “I*w2*π/6)”, “T/C.” for “T/C (the ratio between the tumor volume in the treated group and in the untreated control group).”"}},
  "data": [
    {"compound": "CCc1c(N2CCN(C(=O)c3ncnc(C)c3O)CC2)c(=O)n2nc(C3=CCOCC3)nc2n1CC(=O)Nc1ccc(C(F)(F)F)cc1Cl", "note": "[Compound A]", "values": [
      {"measurement": "outcome after stopping temozolomide and irinotecan on day 129", "setting": "[1]; SW620, all treatments stopped vs still treated with compound A only", "value": "remained below 50% tumor regression"},
      {"measurement": "effect on tumor growth of parental SW620 tumors", "setting": "[1]", "value": "delay of the tumor growth"},
      {"measurement": "effect on tumor growth of parental T84 tumors", "setting": "[2]", "value": "no effect"}
    ]},
    {"compound": "CCc1c2c(nc3ccc(OC(=O)N4CCC(N5CCCCC5)CC4)cc13)-c1cc3c(c(=O)n1C2)COC(=O)[C@]3(O)CC", "note": "[irinotecan]", "values": [
      {"measurement": "relapse of TMZ pre-treated SW620 tumors", "setting": "[1]; after 2 cycles TMZ, treatment from day 43", "value": "the tumors relapsed"},
      {"measurement": "effect on tumor growth of parental SW620 tumors", "setting": "[1]", "value": "delay of the tumor growth"},
      {"measurement": "effect on tumor growth of parental T84 tumors", "setting": "[2]", "value": "delay of the tumor growth"}
    ]}
  ]
}
